One data set addresses recombinant PfUDG (Plasmodium falciparum, UniProt Q8ILU6, P157T). The data set is described as follows: Inhibition of recombinant PfUDG activity (32P-labelled oligo-U glycosylase assay). Type of data set: biochemical. The note with it: for Inhibitory effect of UGI on recombinant PfUDG: 1:1 molar ratio of PfUDG and UGI. The method, then:
(§1) The UDG activity assay (20 μl) consisted of standard reaction buffer containing 20 mM Tris–HCl pH 8.0, 1 mM DTT, 1 mM EDTA, 50 mM NaCl, 100 μg/ml BSA, 10 pmol ^32P-labelled oligo-U, and 20 ng of PfUDG at 37°C for 20 min. The glycosylase activity was stopped by heating at 100°C for 1 min, the resulting apurinic/apyrimidinic site (AP site) was incised by hot alkaline treatment with 0.1 M NaOH (final concentration) at 95°C for 10 min, and the reaction was neutralized with 0.1 M HCl (final concentration). The AP lyase activity assay of PfUDG was examined under the same condition as UDG activity assay except without hot alkaline treatment. Reaction products were analysed on 8 M urea-16% denaturing PAGE and exposed to X-ray film for autoradiography for visualization. The radioactive intensity of sliced substrate and product bands from the gel were measured in a 1450 MicroBeta® Trilux Liquid Scintillation Counter (Perkin Elmer) as counts per minute (cpm). The amounts of substrate and product (pmol) were determined from radioactive intensity. One unit of activity is defined as the amount of PfUDG required for releasing 1 pmol of uracil in 1 min at 37°C in standard reaction buffer (20 mM Tris–HCl pH 8.0, 50 mM NaCl, 1 mM EDTA, 1 mM DTT, and 100 μg/ml BSA) with ^32P-labelled single stranded oligo-U substrate.
Two types of UDG inhibitors, UGI protein and synthetic uracil-derived compounds, were tested for their inhibitory effects on PfUDG. UGI protein of B. subtilis bacteriophage PBS1 (New England BioLabs) was used against native and recombinant PfUDG with 10 pmol ^32P-labelled single stranded oligo-U in the standard reaction buffer at 37°C for 20 min. The synthetic uracil-derived compounds were also used at various concentrations (5–640 μM) with 20 ng of recombinant PfUDG and 10 pmol ^32P-labelled single stranded oligo-U in the standard reaction buffer at 37°C for 20 min. The same 0.4% (v/v final concentration) of DMSO was used as solvent control to determine its effects on enzyme activity. The dose–response curves of relative activities of PfUDG and various compound concentrations were generated, and half-maximal inhibitory concentration (IC50), the concentration of compound to inhibit enzyme activity by 50%, was obtained using SigmaPlot 12.0.

The subject of the next data set is P. falciparum K1 strain. As to the kind of experiment: Inhibition of parasite growth in vitro, SYBR Green I based assay. Type of data set: cell-based. The note with it: Plasmodium falciparum, synchronized ring stage K1 strain. As to the method:
The synchronized ring stage of P. falciparum K1 strain was prepared from mixed stage parasite culture by 5% D-sorbitol treatment. The ring stage parasite was then mixed with culture medium containing RPMI 1640 supplemented with 10% human serum. Various concentrations of each uracil-derived compound were tested at 2-fold serial dilutions in triplicate. Their inhibitory effects on parasite growth were determined by SYBR Green I based assay. The fluorescent intensity was measured by Varioskan Flash Multimode Reader (Thermo Scientific, Vantaa, Finland) with excitation and emission wavelengths of 485 and 535 nm, respectively. The percentage of fluorescent intensity at each compound concentration compared with negative control was indicative of the parasite growth. The dose–response curves of fluorescent intensity and compound concentrations were generated, and IC50, the concentration of compound to inhibit parasite growth by 50%, was obtained using SigmaPlot 12.0.

Another data set deals with HSV-1 UDG. More on the design: method as in PMID 8391260. The note with it: HSV-1 UDG purified from HSV-1-infected HeLa cells; cited from earlier work.
Data set [1] in a line: Cytotoxicity test, MTT colorimetric assay. The note with it: human, HepG2 cells. Type of data set: cell-based. The method, then: The uracil-derived compounds showing inhibitory effects on PfUDG were assayed for cytotoxicity to human hepatocyte carcinoma cell line ATCC HB 8665 (HepG2) by in vitro cytotoxicity test. The methylthiazol tetrazolium (MTT)-dye based colorimetric microtitration assay was used for detecting cell survival based on the metabolism of tetrazolium to formazan by viable cells. The OD of formazan was measured by a Molecular Devices Microplate Reader (Molecular Devices, CA, USA) at a wavelength of 570 nm. The OD570 represented the cell survival, and the percentage of cell survival at each compound concentration was determined by comparing with the OD570 of negative control lacking compounds. The dose–response curves of % cell survival, and compound concentrations and IC50 were obtained. IC50 representing the concentration of compounds providing 50% cell survival indicated the cytotoxicity of compounds.
For orientation: Tetrazolium assays rely on reduction of a dye to a coloured formazan, in cell work by metabolically active cells.

A further data set has as its system human UDG. Details: method as in PMID 8391260. The conditions noted are these: purified human HeLa UDG; cited from earlier work.
Another data set concerns native PfUDG. As to the kind of experiment: Inhibition of native PfUDG activity by UGI (32P-labelled oligo-U glycosylase assay). The class given is biochemical, Plasmodium falciparum. The note with it: 1:1 molar ratio of PfUDG and UGI. The method, then:
as §1, with “substrate. […]” for “substrate.”

[2] abbreviates: listed as uracil glycosylase inhibitor protein.

The values below come from paper PMC3997752, “Molecular characterization of Plasmodium falciparum uracil-DNA glycosylase and its potential as a new anti-malarial drug target” (Malaria Journal, 2014).

recombinant PfUDG, sequence (Q8ILU6 whole entry P157T): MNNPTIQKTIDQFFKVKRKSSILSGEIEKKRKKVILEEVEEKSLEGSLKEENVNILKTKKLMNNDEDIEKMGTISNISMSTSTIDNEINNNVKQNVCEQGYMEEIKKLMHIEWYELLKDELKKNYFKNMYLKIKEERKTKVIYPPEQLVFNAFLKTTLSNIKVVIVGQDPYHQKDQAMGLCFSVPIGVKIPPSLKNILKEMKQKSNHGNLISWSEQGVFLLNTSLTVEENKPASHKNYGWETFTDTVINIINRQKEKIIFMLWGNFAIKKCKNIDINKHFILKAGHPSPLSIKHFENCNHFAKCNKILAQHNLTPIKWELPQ

With `CCCCCCCc1ccc(Nc2cc(=O)[nH]c(=O)[nH]2)cc1` [compound 3, 6-(p-n-Heptylanilino)uracil], the IC50 (in general, the point on the concentration scale where inhibition reaches its midpoint) is above 400 µM on recombinant PfUDG, 5 µM in the data set on P. falciparum K1 strain and 20 µM with HSV-1 UDG.
`CCCCCc1ccc(Nc2cc(=O)[nH]c(=O)[nH]2)cc1` [compound 9, 6-(p-n-Pentylanilino)uracil]: the IC50 was above 400 µM at recombinant PfUDG, 10.5 µM in the data set on P. falciparum K1 strain and 30 µM in the data set on HSV-1 UDG.
As for `CCCc1ccc(Nc2cc(=O)[nH]c(=O)[nH]2)cc1` [compound 5, 6-(p-n-Propylanilino)uracil], the results for the IC50 on recombinant PfUDG and in the data set on P. falciparum K1 strain were above 400 µM and 7.9 µM, respectively.
In the case of `O=c1cc[nH]c(=O)[nH]1` [compound 6, Uracil], the IC50 on recombinant PfUDG is above 400 µM; in the data set with P. falciparum K1 strain it was 10 µM.
For `CC(C)Cc1ccc(Nc2cc(=O)[nH]c(=O)[nH]2)cc1` [compound 12, 6-(p-i-Butylanilino)uracil], in that order: above 400 µM and 16.5 µM.
For the molecule `CC(C)c1ccc(Nc2cc(O)nc(O)n2)cc1` [compound 11, 6-(p-i-Propylanilino)uracil], the IC50 is above 400 µM on recombinant PfUDG and 12.6 µM in the data set on P. falciparum K1 strain.
For `Cc1ccc(Nc2cc(=O)[nH]c(=O)[nH]2)cc1` [compound 4, 6-(4-Methylanilino)uracil], in that order: above 400 µM and 7.1 µM.
As to `CC(C)CCc1ccc(Nc2cc(=O)[nH]c(=O)[nH]2)cc1` [compound 10, 6-(p-i-Pentylanilino)uracil], the IC50 on recombinant PfUDG is above 400 µM; in the data set on P. falciparum K1 strain, 11 µM; with HSV-1 UDG, 140 µM.
`CCc1cc(Nc2cc(=O)n(CCCCO)c(=O)[nH]2)ccc1C` [compound 8, 3-(4-Hydroxybutyl)-6-(3-ethyl-4-methylanilino)uracil]: the figures for the IC50 on recombinant PfUDG and in the data set with P. falciparum K1 strain were above 400 µM and 10.2 µM, respectively.
As for `O=c1cc(NNc2ccccc2)[nH]c(=O)[nH]1` [compound 2, 6-(Phenylhydrazino)uracil], the IC50 was determined as 77.5 µM at recombinant PfUDG, 12.8 µM in the data set with P. falciparum K1 strain and 27.5 ± 4.58 µM in data set [1].
In the case of `CCCCCCCCc1ccc(Nc2cc(=O)[nH]c(=O)[nH]2)cc1` [6-(4-n-octylanilino)uracil, 6-(4-n-Octylanilino)uracil], the IC50 with human UDG was above 300 µM.
Regarding `CCCCc1ccc(Nc2cc(=O)[nH]c(=O)[nH]2)cc1` [compound 7, 6-(p-n-Butylanilino)uracil], the IC50 at recombinant PfUDG was above 400 µM; in the data set with P. falciparum K1 strain, 10 µM; with HSV-1 UDG, 150 µM.

B1: UGI: UGI protein of B. subtilis bacteriophage PBS1 (New England BioLabs), a well-known UDG inhibitor (protein, UniProt P14739 1-84, looked up)
Uracil-DNA glycosylase …: MTNLSDIIEKETGKQLVIQESILMLPEEVEEVIGNKPESDILVHTAYDESTDENVMLLTSDAPEYKPWALVIQDSNGENKIKML
As for B1, the “Inhibitory effect of UGI on recombinant PfUDG” value is “completely inhibited” with recombinant PfUDG and “inhibited” with recombinant PfUDG (setting [2]). In addition, the “Inhibitory effect of UGI on native PfUDG” value in the data set on native PfUDG is “completely inhibited”; with native PfUDG (setting [2]) it was “inhibited”.
